# Measurements published in publication PMC12030062, “From In Vitro Cytotoxicity to In Vivo Zebrafish Assays: A Study on 3,3-Dichloro β-, γ- and δ-Lactams and Their Biological Activity Profiles” (Pharmaceuticals, 2025).
# Experiments:
# [1] = system: Zebrafish embryos; assay: Fish embryo acute toxicity (FET): lethality and dysmorphogenesis; assay type: in vivo
# Procedure: (§1) Zebrafish provide a widely used vertebrate model for cost-effective, in vivo whole-organism screening.
# (§2) (2 mM CaCl2•2 H2O; 0.5 mM MgSO4•7 H2O; 0.75 mM NaHCO3; 0.07 mM KCl). The fish were maintained at a temperature of 26 ± 1 °C on a 14-h light and 10-h dark cycle and were fed daily in the morning with Artemia salina, then with commercial flake food in the afternoon (SDS400, Special Diet Services, Dietex, France). For optimal Zebrafish reproduction, we used animals between 6 months and a year old. The day before the eggs were needed, males and females were placed in a breeding tank with plants at a 2:1 male-to-female ratio (usually using 8 males and 4 females in a big breeding tank). The following morning, eggs were collected 30 min after the lights were turned on. […] Fertilized, non-coagulated, and synchronously divided eggs were selected using a stereomicroscope (Motic SMZ168, Motic Hong Kong Ltd., Hong Kong, China) and transferred to 6-well plates (10 embryos/well). The embryos were exposed to freshly prepared tested concentrations of the compound in 0.3× Danieau’s solution. The chemical stock solution was prepared in 100% dimethylsulfoxide (DMSO) and subsequently diluted in Danieau’s buffer with a final DMSO concentration of 1% (v/v). Testing was carried out using five concentrations with a negative control of solvent with 1% of DMSO. Embryos were incubated at 27 ± 1 °C with a light:dark cycle of 14:10 h until 72 h post-fertilization (hpf) under semi-static conditions, as exposure solutions were renewed with freshly prepared solutions every 24 h. • Lethality and dysmorphogenesis evaluation At 24, 48, and 72 hpf, the embryos were observed under a stereomicroscope to assess lethality. […] At the end of the test, dysmorphogenesis was evaluated in the live embryos only. The average lethality and dysmorphogenesis were calculated for 10 embryos per concentration, followed by averaging the results of at least three independent experiments. […] Subsequently, the TER test was conducted according to the protocol described by Guzman et al.. […] The distance was averaged and converted from pixels to millimeters. This assay was performed only on larvae from concentration groups where both the lethality and dysmorphogenesis were less than 20%. Six larvae per concentration group were evaluated in at least three independent experiments. • Statistical analysis Statistical analysis was performed using GraphPad Prism v.10.0.2. The TER test was analyzed using a one-way ANOVA and a post hoc multiple-comparison Dunnett test. The significance threshold was established at p < 0.05.
# [2] = as above; assay type: in vivo; conditions: zebrafish, in vivo, exposure 2 to 72 hpf, read at 72 hpf
# Procedure: as §1, §2
# [3] = system: A431 cell line (squamous cell carcinoma); assay: Cell viability, MTT assay, A431; assay type: cell-based
# Procedure: (§3) Two different endpoints, 3-(4,5-dimethyl-2-thiazolyl)-2,5-diphenyltetrazolium bromide (MTT) and neutral red uptake (NRU), were used to assess differences in cell-induced cytotoxicity. […] In addition, NRU evaluates the interaction of these drugs with the plasmatic membrane. Cell responses were determined from the MTT [16] and NRU [17] assays, using the two proposed cell lines. Cytotoxicity assays were performed at concentrations equal to 80 and 250 µg/mL. The IC50 value, referring to the half-maximal inhibitory concentration, was determined as a key parameter in cytotoxicity studies (Table 1). It plays a crucial role in evaluating cell viability and assessing cellular responses to various drugs or toxins. For cases where IC50 values were below 80 µg/mL, additional studies at lower concentrations were conducted to accurately determine these values. […] The selectivity index (SI), used as a measurement of action against the tumor cell line in comparison with a normal cell line, was also included.
# (§4) • In Vitro Assay Using Human Erythrocytes • - Acquisition and Extraction of the Erythrocytes Human blood samples were obtained from the Banc de Sang i Teixits de Barcelona (Spain) from the Catalan Department of Health. Blood was deposited in tubes with the anticoagulant EDTA-K3. Blood samples were centrifuged at 3000 rpm and 4 °C for 10 min (Megafuge 2.0 R. Heraeus Instruments, Hanau, Germany) to induce sedimentation. Plasma was extracted with a Pasteur pipette. Next, the residual pellet was washed with PBS at pH 7.4. This procedure was repeated three times to remove residual leukocytes and platelets and to concentrate the erythrocytes. Following the last wash, the erythrocyte suspension was diluted (1:1) in PBS at pH 7.4 to obtain a suitable erythrocyte suspension (cell density of 8 × 10^9 cell/mL). • - Hemolysis Assay The hemolysis assay determined the capability of different compounds to induce the hemolysis of the erythrocyte membrane. Stock solutions of each compound at 1 mg/mL in PBS at pH 7.4 were prepared. Different volumes (10–80 μL) were placed in polystyrene tubes, and an aliquot of 25 µL of the erythrocyte suspensions was added to each tube. The final volume was 1 mL. The tubes were incubated at room temperature under rotatory conditions. Then, the tubes were centrifuged at 10,000 rpm for 5 min. The supernatants’ absorbance at 540 nm (Shimadzu UV-160A, Shimadzu, Duisburg, Germany) was compared with that of the positive (erythrocytes hemolyzed with distilled water) and negative (erythrocyte suspension in PBS at pH 7.4) controls. The degree of hemolysis was determined using the following equation: Hemolysis (%) = 100 × (Abs − Abs0)/(Abs100 − Abs0) where Abs, Abs0, and Abs100 are the absorbance of the test samples, of the suspension treated with isotonic phosphate–buffered saline (PBS), and of the suspension of complete hemolysis treated with distilled water, respectively. • In Vitro Essay Using Cell Cultures The murine Swiss albino fibroblasts (3T3) and the squamous cell carcinoma (A431) cell lines were obtained from Celltec UB. Cells were grown in DMEM medium (4.5 g/L glucose) supplemented with 10% (v/v) FBS, 2 mM L-glutamine, 100 U/mL penicillin, and 100 µg/mL streptomycin at 37 °C with 5% CO2. Cells were routinely cultured in 75 cm^2 culture flasks and were trypsinized using trypsin–EDTA when the cells reached approximately 80% confluence. The trypan blue assay, which allows for the direct identification and enumeration of the live (unstained) and dead (blue) cells in the cell population, was used to evaluate the viability of the cells in the cell suspension obtained. • - Cell Viability Assays Cell lines of 3T3 (1 × 10^5 cells/mL) and A431 (5 × 10^4 cells/mL) were grown at defined densities in the 60 central wells of a 96-well plate. The cells were incubated for 24 h in 5% CO2 at 37 °C. […]
# [4] = system: A431 cells; assay: AO/EB double staining, cellular death events; assay type: cell-based, human; conditions: A431, 24 h, 10-160 µg/mL
# [5] = system: murine Swiss albino fibroblast (3T3) cell line; assay: Cell viability, NRU assay, 3T3; assay type: cell-based; conditions: Mus musculus, 24 h incubation, NRU endpoint
# Procedure: as §3, §4
smiles,measurement,setting,value
CC(C)(C)N1C(=O)C(Cl)(Cl)C1c1ccccc1 (stereo not drawn) [Compound 1],EC50,"[1]; Danio rerio, read-out: EC50 (dysmorphogenesis)",5.23 µg/mL
same,teratogenic index (TI),[1]; TI = LC50/EC50,2.85
same,teratogenicity classification,[1]; TI > 2,potential teratogen
same,morphological abnormalities,[1]; embryos exposed 2 to 72 hpf,"pericardial edema, large yolk sacs, and flexion abnormalities"
same,LC50 (lethality),"[1]; exposure 2 to 72 hpf, read at 72 hpf",14.9 µg/mL
same,LC50,[2],14.9 µg/mL
same,IC50 (MTT) A431,"[3]; 24 h incubation, MTT endpoint, A431",71.65 ± 1.23 µg/mL
same,IC50,"[3]; Homo sapiens, A-431, 24 h, 24 h incubation, MTT endpoint, A431, read-out: IC50 (MTT) A431",71 µg/mL
same,"SI (MTT), selectivity index","[3]; SI = IC50 (3T3)/IC50 (A431), MTT",2.94
same,"selective cytotoxicity, A431 in comparison with 3T3 cells",[3]; lower IC50 for A431 than 3T3,some selective cytotoxicity
same,mode of cell death,[4],induces cell death primarily via apoptosis
same,IC50,[5],> 250 µg/mL
